One experiment concerns CFTR. On the set-up: method as in earlier work. To be noted: ref [27] (GLPG-2737); ref [21], [26], [27] (ELX); cited from earlier work.
For a further experiment, the system named is F508del.L15W-CFTR. Kind of experiment: Site-directed mutagenesis immunoblotting, HEK-TREx, F508del.L15W-CFTR. The following applies: 40 h, 2 μM. Type of experiment: cell-based, human. From the text: (§1) The human CFTR expressing HEK cell pools with the mutations described below were generated by integrase-mediated homologous recombination of the CFTR sequence into the T-REx HEK293 background (Thermo Fisher Scientific). This expression system allows the tetracycline-inducible expression of genes of interest from one defined insertion site. Parental T-REx-HEK293 cells were cultivated in growth medium: Dulbecco’s modified Eagle’s medium + GlutaMAX-I (#31966, Life Technologies), 10% dialyzed FBS (Gibco, #26400), penicillin (100 U/ml), streptomycin (100 μg/ml), hygromycin B (0.1 mg/ml; Life Technologies), blasticidin (5 μg/ml; Invitrogen, #R210-01), and 0.1 mM nonessential amino acid solution (Invitrogen, #11140-035). Recombinant T-REx-HEK-CFTR cells were generated by lipofectamine transfection (Life Technologies) of plasmids containing mutated versions of CFTR (RefSeq NM_000492) and then cultivated in selection medium [growth medium containing Geneticin (1 mg/ml) (Invitrogen, #10131-027) instead of hygromycin]. The plasmid constructs were synthetized by GENEART (Thermo Fisher Scientific) and designed with the WT CFTR intron 5 to 6 (880 nucleotides) to prevent leaky expression issues during the cloning process in bacteria. […]

In the next experiment the target is T1, N1303K CFTR (Homo sapiens, UniProt P13569, N1303K).
T1 construct: expressed in transfected cells; host or cells: T-REx HEK293
As to the kind of experiment: CFTR correction (immunoblotting), HEK-TREx, N1303K. Type of experiment: cell-based. To be noted: 48 hours, IDOR-3 2 μM, IDOR-4 0.4 μM, TEZ 2 μM + ELX 0.4 μM.
Description: as §1
For orientation: In western blotting, separated proteins are transferred to a membrane and probed.

The target in a further experiment is T2, R347P CFTR (Homo sapiens, UniProt P13569, R347P).
T2 construct: expressed in transfected cells; host or cells: T-REx HEK293
Kind of experiment: CFTR correction (immunoblotting), HEK-TREx, R347P. Format: cell-based. The following applies: 48 hours, IDOR-3 2 μM, IDOR-4 0.4 μM, TEZ 2 μM + ELX 0.4 μM.
Description: as §1

The subject of another experiment is F508del.K14A-CFTR. Kind of experiment: Site-directed mutagenesis immunoblotting, HEK-TREx, F508del.K14A-CFTR. Type of experiment: cell-based, human. The following applies: 40 h, 2 μM.
Description: as §1

Experiment [1] addresses T3, F508del-CFTR-G550E.R553M.R555K.R1070W (3TS + RW) (Homo sapiens, UniProt P13569, DEL508-508/G550E/R1070W/R553M/R555K).
T3 construct: expressed in transfected cells; host or cells: T-REx HEK293
Kind of experiment: CFTR immunoblotting in HEK-TREx cells expressing F508del-CFTR 3TS + RW. Type of experiment: cell-based. To be noted: 48 hours.
Description: as §1

For another experiment, the target named is T4, WT-CFTR (Homo sapiens, UniProt P13569).
T4 construct: host or cells: CFBE41o-
As to the kind of experiment: YFP quenching assay in CFBE-WT-CFTR-YFP cells. Type of experiment: cell-based.

The next experiment addresses T5, R1066C CFTR (Homo sapiens, UniProt P13569, R1066C).
T5 construct: expressed in transfected cells; host or cells: T-REx HEK293
Kind of experiment: CFTR correction (immunoblotting), HEK-TREx, R1066C. Format: cell-based. The following applies: 48 hours, IDOR-3 2 μM, IDOR-4 0.4 μM, TEZ 2 μM + ELX 0.4 μM.
Description: as §1

The next experiment deals with T6, L206W CFTR (Homo sapiens, UniProt P13569, L206W).
T6 construct: expressed in transfected cells; host or cells: T-REx HEK293
As to the kind of experiment: CFTR correction (immunoblotting), HEK-TREx, L206W. Format: cell-based. The following applies: 48 hours, IDOR-3 2 μM, IDOR-4 0.4 μM, TEZ 2 μM + ELX 0.4 μM.
Description: as §1

In the next experiment the target is T7, R560T CFTR (Homo sapiens, UniProt P13569, R560T).
T7 construct: expressed in transfected cells; host or cells: T-REx HEK293
Kind of experiment: CFTR correction (immunoblotting), HEK-TREx, R560T. Type of experiment: cell-based. The following applies: 48 hours, IDOR-3 2 μM, IDOR-4 0.4 μM, TEZ 2 μM + ELX 0.4 μM.
Description: as §1

A further experiment deals with T8, I507del CFTR (Homo sapiens, UniProt P13569, DEL507-507).
T8 construct: expressed in transfected cells; host or cells: T-REx HEK293
As to the kind of experiment: CFTR correction (immunoblotting), HEK-TREx, I507del. The following applies: 48 hours, IDOR-3 2 μM, IDOR-4 0.4 μM, TEZ 2 μM + ELX 0.4 μM. Format: cell-based.
Description: as §1

Consider 2 compounds from article PMC11801377, “A uniquely efficacious type of CFTR corrector with complementary mode of action” (Science Advances, 2024).

T5 sequence (P13569 whole entry R1066C): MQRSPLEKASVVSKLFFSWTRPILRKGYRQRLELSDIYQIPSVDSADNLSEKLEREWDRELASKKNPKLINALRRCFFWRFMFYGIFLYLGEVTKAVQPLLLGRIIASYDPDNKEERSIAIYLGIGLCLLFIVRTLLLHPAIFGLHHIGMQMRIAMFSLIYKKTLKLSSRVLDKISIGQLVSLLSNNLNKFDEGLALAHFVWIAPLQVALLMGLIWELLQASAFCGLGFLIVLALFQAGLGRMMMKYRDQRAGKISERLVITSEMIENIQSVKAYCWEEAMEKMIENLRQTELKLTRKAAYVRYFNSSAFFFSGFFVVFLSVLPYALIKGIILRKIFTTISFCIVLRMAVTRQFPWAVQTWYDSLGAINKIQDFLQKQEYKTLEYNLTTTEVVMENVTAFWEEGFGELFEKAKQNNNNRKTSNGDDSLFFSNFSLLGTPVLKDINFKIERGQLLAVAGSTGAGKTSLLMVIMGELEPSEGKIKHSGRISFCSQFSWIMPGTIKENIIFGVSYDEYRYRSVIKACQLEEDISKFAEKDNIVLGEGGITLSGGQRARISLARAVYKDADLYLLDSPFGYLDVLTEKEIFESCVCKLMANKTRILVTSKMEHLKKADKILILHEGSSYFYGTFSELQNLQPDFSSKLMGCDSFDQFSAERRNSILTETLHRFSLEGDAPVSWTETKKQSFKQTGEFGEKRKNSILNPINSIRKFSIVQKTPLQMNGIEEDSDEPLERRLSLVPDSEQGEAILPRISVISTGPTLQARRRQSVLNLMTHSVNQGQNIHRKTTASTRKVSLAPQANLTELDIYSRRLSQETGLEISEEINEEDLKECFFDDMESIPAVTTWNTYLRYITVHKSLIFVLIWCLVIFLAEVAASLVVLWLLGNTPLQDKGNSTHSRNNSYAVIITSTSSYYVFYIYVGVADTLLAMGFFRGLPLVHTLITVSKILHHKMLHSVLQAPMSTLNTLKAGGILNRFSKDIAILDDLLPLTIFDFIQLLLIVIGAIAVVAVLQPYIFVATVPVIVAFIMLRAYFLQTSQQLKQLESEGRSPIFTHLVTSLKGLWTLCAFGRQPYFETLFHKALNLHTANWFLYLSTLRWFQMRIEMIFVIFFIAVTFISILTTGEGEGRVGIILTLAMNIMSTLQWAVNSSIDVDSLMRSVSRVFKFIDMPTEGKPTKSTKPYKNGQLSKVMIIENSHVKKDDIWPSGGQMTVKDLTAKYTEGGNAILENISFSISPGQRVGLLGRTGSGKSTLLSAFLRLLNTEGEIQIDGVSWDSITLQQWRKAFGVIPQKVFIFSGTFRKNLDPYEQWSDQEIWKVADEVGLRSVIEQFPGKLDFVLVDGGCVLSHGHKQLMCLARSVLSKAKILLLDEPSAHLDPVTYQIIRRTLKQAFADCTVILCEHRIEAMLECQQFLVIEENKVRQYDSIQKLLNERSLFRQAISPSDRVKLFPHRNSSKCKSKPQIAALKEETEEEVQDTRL
T4 sequence (P13569 whole entry): as the sequence (P13569 whole entry R1066C) above, with C1066R counted along it
T1 sequence (P13569 whole entry N1303K): as the sequence (P13569 whole entry R1066C) above, with C1066R, N1303K counted along it
T8 sequence (P13569 with tags, fused parts or gaps DEL507-507): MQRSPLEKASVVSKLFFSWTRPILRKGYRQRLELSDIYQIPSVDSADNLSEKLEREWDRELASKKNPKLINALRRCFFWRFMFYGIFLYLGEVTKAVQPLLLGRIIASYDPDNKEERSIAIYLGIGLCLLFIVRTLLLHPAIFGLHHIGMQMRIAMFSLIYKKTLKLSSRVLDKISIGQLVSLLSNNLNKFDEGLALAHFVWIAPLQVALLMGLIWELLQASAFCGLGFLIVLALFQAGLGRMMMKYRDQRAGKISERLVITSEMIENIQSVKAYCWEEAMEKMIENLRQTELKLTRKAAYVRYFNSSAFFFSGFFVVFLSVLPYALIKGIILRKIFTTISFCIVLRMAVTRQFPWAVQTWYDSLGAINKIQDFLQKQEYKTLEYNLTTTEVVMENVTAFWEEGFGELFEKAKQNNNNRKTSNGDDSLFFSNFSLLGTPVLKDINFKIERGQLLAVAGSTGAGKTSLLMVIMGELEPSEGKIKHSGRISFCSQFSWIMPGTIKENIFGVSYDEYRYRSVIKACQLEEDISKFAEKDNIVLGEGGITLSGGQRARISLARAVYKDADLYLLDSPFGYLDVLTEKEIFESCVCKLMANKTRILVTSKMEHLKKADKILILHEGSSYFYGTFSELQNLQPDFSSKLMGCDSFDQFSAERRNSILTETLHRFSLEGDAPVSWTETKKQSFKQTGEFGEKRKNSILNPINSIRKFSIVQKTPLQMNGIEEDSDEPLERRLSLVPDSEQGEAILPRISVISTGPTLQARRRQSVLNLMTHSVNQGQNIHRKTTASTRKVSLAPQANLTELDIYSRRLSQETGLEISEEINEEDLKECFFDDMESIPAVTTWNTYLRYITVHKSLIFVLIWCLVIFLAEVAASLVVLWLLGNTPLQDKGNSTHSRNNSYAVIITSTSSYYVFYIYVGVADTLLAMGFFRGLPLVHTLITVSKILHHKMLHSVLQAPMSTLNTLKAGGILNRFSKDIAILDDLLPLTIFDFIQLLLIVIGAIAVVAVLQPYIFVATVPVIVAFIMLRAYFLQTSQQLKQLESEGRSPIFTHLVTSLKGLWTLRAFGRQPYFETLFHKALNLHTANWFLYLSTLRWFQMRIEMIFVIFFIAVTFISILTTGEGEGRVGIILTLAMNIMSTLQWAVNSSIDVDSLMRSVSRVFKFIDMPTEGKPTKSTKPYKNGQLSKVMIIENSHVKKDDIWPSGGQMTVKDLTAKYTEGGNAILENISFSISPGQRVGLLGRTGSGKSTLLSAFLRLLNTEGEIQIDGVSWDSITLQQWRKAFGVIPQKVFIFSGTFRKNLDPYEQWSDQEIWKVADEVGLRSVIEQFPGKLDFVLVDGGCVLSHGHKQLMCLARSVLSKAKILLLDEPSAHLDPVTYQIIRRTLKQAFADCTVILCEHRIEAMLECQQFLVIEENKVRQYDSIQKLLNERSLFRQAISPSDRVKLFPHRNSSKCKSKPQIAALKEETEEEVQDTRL
T7 sequence (P13569 whole entry R560T): as the sequence (P13569 whole entry R1066C) above, with R560T, C1066R counted along it
T2 sequence (P13569 whole entry R347P): as the sequence (P13569 whole entry R1066C) above, with R347P, C1066R counted along it
T3 sequence (P13569 with tags, fused parts or gaps DEL508-508/G550E/R553M/R555K/R1070W): as the sequence (P13569 with tags, fused parts or gaps DEL507-507) above, with F507I, G549E, R552M, R554K, R1069W counted along it
T6 sequence (P13569 whole entry L206W): as the sequence (P13569 whole entry R1066C) above, with L206W, C1066R counted along it

In the case of `Cc1nn(C)cc1S(=O)(=O)NC(=O)c1ccc(-n2ccc(OCC(C)(C)C(F)(F)F)n2)nc1N1C[C@@H](C)CC1(C)C` [ELX, elexacaftor], the “acute effect on CFTR currents” value in the experiment on CFTR was “copotentiating effects”.

With `COc1cc(CCNC(=O)C2CC(=O)N(C)C(CC(C)C)C(=O)N3CCCCC3C(=O)NC(Cc3ccccc3)COc3ccc4ncc(F)cc4c3C(=O)N2)on1` (centres unmarked) [IDOR-3], in the experiment with F508del.L15W-CFTR, the “correction by macrocycles versus [LUM + BAM]” value is given as “little difference”. Further, the “correction of N1303K” value on N1303K CFTR is recorded as “only minor activity”. Also, the “correction of R347P” value at R347P CFTR is “highly effective”. The “weaker correction by macrocycles as compared to [LUM + BAM]” value in the experiment on F508del.K14A-CFTR is “two- to fourfold”. For the same compound, the “effect of introduction of the RW mutation on C-band expression” value in [1] was “no additional effect”. Further, the “increase in WT-CFTR function” value on WT-CFTR is listed as ~ 2 fold. Besides, the “correction of R1066C” value on R1066C CFTR is “highly effective”. Also, at L206W CFTR, the “correction of L206W” value is reported as “highly effective”. Besides, on R560T CFTR, the “correction of R560T” value is reported as “highly effective”. Further, the “correction of I507del” value at I507del CFTR is “highly effective”.
